From article PMC11704350 (2025)
Each block holds one molecule with its values, some of them ahead of it.

Legend:
[1] = tested on: Nrf2C (DNA, i motif) CCCTCCCGCCCTTGCTCCCTTCCC; test: fluorescent indicator displacement; conditions: 100 mM KCl, 10 mM sodium cacodylate pH 6.5, room temperature, thiazole orange displaced
[2] = tested on: Nrf2G (DNA, G4) GGGAAGGGAGCAAGGGCGGGAGGG; test: CD melting (264 nm); conditions: 100 mM KCl, 10 mM sodium cacodylate pH 6.5, 50 µM ligand, 10 µM DNA
[3] = tested on: DS (DNA, duplex) GGCATAGTGCGTGGGCGTTAGC/GCTAACGCCCACGCACTATGCC; test: CD melting (253 nm); conditions: 100 mM KCl; 10 mM sodium cacodylate pH 6.5; 50 µM ligand, 10 µM DNA
[4] = tested on: Nrf2C (DNA, i motif) CCCTCCCGCCCTTGCTCCCTTCCC; test: UV titration (ligand absorbance); conditions: 100 mM KCl, 10 mM sodium cacodylate pH 6.5, DNA up to 50 µM
[5] = tested on: Nrf2G (DNA, G4) GGGAAGGGAGCAAGGGCGGGAGGG; test: UV titration (ligand absorbance); conditions: 100 mM KCl, 10 mM sodium cacodylate pH 6.5, DNA up to 50 µM
[6] = tested on: DS (DNA, duplex) GGCATAGTGCGTGGGCGTTAGC/GCTAACGCCCACGCACTATGCC; test: UV titration (ligand absorbance); conditions: 100 mM KCl, 10 mM sodium cacodylate pH 6.5, DNA up to 50 µM
[7] = tested on: hTeloC (DNA, i motif) TAACCCTAACCCTAACCCTAACCC; test: UV titration (ligand absorbance); conditions: 100 mM KCl, 10 mM sodium cacodylate pH 6.5, DNA up to 50 µM
[8] = tested on: hTeloG (DNA, G4) GGGTTAGGGTTAGGGTTAGGGTTA; test: UV titration (ligand absorbance); conditions: 100 mM KCl, 10 mM sodium cacodylate pH 6.5, DNA up to 50 µM
[9] = tested on: DAPC (DNA, i motif) CCCCCGCCCCCGCCCCCGCCCCCGCCCCC; test: UV titration (ligand absorbance); conditions: 100 mM KCl, 10 mM sodium cacodylate pH 6.5, DNA up to 50 µM
[10] = tested on: DAPG (DNA, G4) GGGGGCGGGGGCGGGGGCGGGGGCGGGGG; test: UV titration (ligand absorbance); conditions: 100 mM KCl, 10 mM sodium cacodylate pH 6.5, DNA up to 50 µM
[11] = tested on: Nrf2C (DNA, i motif) CCCTCCCGCCCTTGCTCCCTTCCC; test: CD melting (288 nm); conditions: 100 mM KCl; 10 mM sodium cacodylate pH 6.5; 50 µM ligand, 10 µM DNA
[12] = 0.5 µM DNA (legend; methods 1 µM)

DC50 [1, 12]: 3.2 ± 0.1 µM
SMILES: Clc1c(Cl)c(Cl)c2[nH]nnc2c1Cl

DC50 [1, 12]: 3.9 ± 1.0 µM
SMILES: Cc1c2ccncc2c(C)c2c1[nH]c1ccccc12

DC50 [1, 12]: 4.9 ± 1.5 µM
SMILES: COc1cccc2c1C(=O)c1c(O)c3c(c(O)c1C2=O)C[C@@](O)(C(C)=NO)C[C@@H]3O[C@H]1C[C@H](N)[C@H](O)[C@H](C)O1

DC50 [1, 12]: 12 ± 3.4 µM
SMILES: Nc1ccc(-c2nc3nc(N)nc(N)c3nc2-c2ccc(N)cc2)cc1

DC50 [1, 12]: 3.4 ± 0.5 µM
SMILES: Cc1ccc(NCCN(C)C)c2c(=O)c3cc(O)ccc3sc12

DC50 [1, 12]: 1.5 ± 0.1 µM
SMILES: CCC(=O)c1ccc(O)c(O)c1

ΔTm ([2]; error ± 0.3): 5 ± 1.0 °C
ΔTm [3]: 0 ± 0.7 °C
Kd ([4]; ligand monitored at 320 nm): 0.25 ± 0.1 µM
Kd ([5]; ligand monitored at 320 nm): 0.6 ± 0.1 µM
Kd ([6]; ligand monitored at 320 nm): 1.9 ± 0.1 µM
Kd ([7]; ligand monitored at 320 nm): 1.1 ± 0.2 µM
Kd ([8]; ligand monitored at 320 nm): 1.0 ± 0.1 µM
Kd ([9]; ligand monitored at 320 nm): 0.9 ± 0.1 µM
Kd ([10]; ligand monitored at 320 nm): 1.6 ± 0.2 µM
DC50 ([1]; poor ligand solubility): > 20 µM
SMILES: O=C(Nc1ccc(Nc2ccncc2)cc1)c1ccc(Nc2ccnc3ccc([N+](=O)[O-])cc23)cc1[N+](=O)[O-]

DC50 [1, 12]: 2.3 ± 0.1 µM
SMILES: COc1cc(-c2ccc(Nc3ccccc3C(=O)O)c(OC)c2)ccc1Nc1ccccc1C(=O)O

DC50 [1, 12]: 16 ± 2.7 µM
SMILES: Cc1cc2nc3ccc(N(C)C)cc3[s+]c2cc1N

ΔTm [11]: -1 ± 1.0 °C
ΔTm [2]: 9 ± 0.3 °C
ΔTm [3]: 9 ± 0.8 °C
Kd ([4]; ligand monitored at 335 nm): 20 ± 1.8 µM
Kd ([5]; ligand monitored at 335 nm): 6.6 ± 0.9 µM
Kd ([6]; ligand monitored at 335 nm): 2.4 ± 0.2 µM
Kd ([7]; ligand monitored at 335 nm): 10 ± 1.3 µM
Kd ([8]; ligand monitored at 335 nm): 6.2 ± 0.4 µM
Kd ([9]; ligand monitored at 335 nm): 6.0 ± 0.9 µM
Kd ([10]; ligand monitored at 335 nm): 8.2 ± 0.7 µM
DC50 [1, 12]: 13 ± 3.0 µM
SMILES: O=C1c2cccc3cc([N+](=O)[O-])cc(c23)C(=O)N1CCN1CCCC1

DC50 [1, 12]: 6.3 ± 0.6 µM
SMILES: C=Cc1cc(OC)c2c(c1)c(=O)oc1c2cc(OC)c2c(O)ccc(C3OC(C)C(O)C(C)(O)C3O)c21 (stereo not drawn)
